The values that follow come from PubChem BioAssay AID463229 (Broad Institute, 2010).

Calls of active or inactive are those of the source.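 How the source made its calls: active means compounds raising the signal whose fitted half-maximal concentration is at or below their top tested dose (cut at about 25 µM in these data); inconclusive means flat fit at 30 to 70% activity, or a poor fit; inactive means the rest.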

This experiment has as its system INS-1E rat beta cells, no cytokines, CellTiter-Glo ATP, 48 h. Kind of experiment: ATP level change in INS-1E without cytokines, dose response, counter-screen for beta-cell apoptosis protection project, INS-1E rat cells, ATP luminescence, cherry pick (AID 463229).
With `Cn1nc(-c2ccc(Cl)cc2)nc2c(=O)n(C)c(=O)nc1-2`, the AC50 was 0.508 µM.
In the case of `CCc1cc(C(=O)NC2CCCc3c2cnn3-c2cccc(C)c2C)n(C)n1` (stereo not given) it was less than 0.195 µM; in that of `COc1ccc(CN(C)c2ccc(S(=O)(=O)N3CCN(C)CC3)cc2[N+](=O)[O-])cc1OC`, 2.83 µM; in that of `NC(=S)N/N=C/c1ccccc1O`, > 26 µM (inactive).
In the case of `Clc1ccc(C(Cn2ccnc2)OCc2csc3c(Cl)cccc23)c(Cl)c1` (stereo not given) it was 14.6 µM; in that of `COc1ccc2nc(C)cc(SCC(=O)N/N=C/c3ccc(O)cc3O)c2c1`, 17.4 µM; in that of `COc1ccc(/C=N/Nc2cc(C)nc(-n3nc(C)cc3C)n2)cc1`, 16.1 µM.
As for `Cn1c(=O)[nH]c(=O)c2c1nc([N+](=O)[O-])n2Cc1ccccc1`, the AC50 was 6.67 µM.
With `CCOC(=O)c1ccc(NC(=O)NCc2cccnc2)cc1` the figure was 2.01 µM; with `Cc1ccc(Nc2c3c(nc4ccccc24)CCC3)cc1`, 16 µM; with `COc1cccc(COc2cc3ccccc3nc2C)c1`, 3.51 µM.
With `CC1=NN(c2nc3ccccc3[nH]2)C(=O)/C1=C/N(C)C` the figure was 2.9 µM.
As to `CC(=O)NC(c1ccccc1)c1cc(Cl)c2cccnc2c1O` (stereo not given), the AC50 is 6.26 µM.
For `Cc1ccc(C)c(N=Nc2ccc(O)c3ncccc23)c1`, the concentration at half-maximal activity (AC50) is 3.98 µM.
In the case of `CCN1CCN(Cc2ccc(NC(=O)c3ccc(C)c(NC(=O)c4c[nH]c5cc(C(F)(F)F)ccc5c4=O)c3)cc2C(F)(F)F)CC1` it was 7.07 µM; in that of `COc1ccc2nc(N=Nc3ccc(O)c4ccccc34)sc2c1`, 7.16 µM; in that of `CN1/C(=C\P(=O)(N(C)C)N(C)C)C(C)(C)c2ccccc21`, 4.86 µM.
With `O=NN(CCc1ccncc1)c1ccc(OCc2ccccc2)cc1` the figure was 8.16 µM.
For the compound `N#Cc1c(N2CCCCC2)nc(N2CCCCC2)c2c1CCN(Cc1ccccc1)C2`, the half-maximal activity concentration (AC50) is 13.8 µM.
In the case of `Nc1c(C(=O)Nc2ccc(S(=O)(=O)N3CCCC3)cc2)sc2nc3cc4c(cc3cc12)CCC4` it was 4.63 µM.
In the case of `CNC1=C(N(C(C)=O)c2ccc(Br)cc2)C(=O)c2ccccc2C1=O` it was 0.943 µM; in that of `Cc1ccc2nc(/C(C#N)=C\c3ccc([N+](=O)[O-])o3)[nH]c2c1`, 2.96 µM; in that of `CCN(CC)CCN1c2ccccc2Sc2ccc3ccccc3c21`, 18.1 µM.
In the case of `CCC1CCCCN1S(=O)(=O)c1ccc(NC(=O)c2nc(S(C)(=O)=O)ncc2Cl)cc1` (stereo not given) it was 8.01 µM.
As to `Cc1cccc(N=Nc2ccc(O)c3ncccc23)c1`, the AC50 was 5 µM.
With `C(=N\Nc1nncc2ccccc12)/c1ccccn1` the figure was 4.47 µM; with `C/C(=N\Nc1nc2ccccc2[nH]1)c1ccccn1`, 0.56 µM.
With `Cc1cc(/C=N/n2c(COc3ccccc3C)nc3ccccc3c2=O)c(O)c([N+](=O)[O-])c1` the figure was 8.92 µM; with `O=C(OCn1ncc(Br)c(Br)c1=O)c1ccc(F)cc1`, 5.09 µM.
In the case of `COc1ccc(C2/C=C\CN(C(=O)C3CC3)[C@H](Cc3ccccc3)C(=O)N2Cc2ccc(F)cc2)cc1` (stereo not given in full) it was 14.5 µM; in that of `O=C(Nc1ccc([N+](=O)[O-])cc1)Nc1nc(-c2ccc(Cl)s2)cs1`, 1.88 µM.
Turning to `CC(C)n1cnc2c(NCc3ccccc3)cc(N[C@H](C)CO)cc21`, the AC50 is 13.7 µM.
With `CCCCC(=O)NC(c1ccccc1OC)c1ccc2cccnc2c1O` (stereo not given) the figure was 2.13 µM.
With `c1ccc(-c2nnc(-c3ccccn3)nc2NC2CCCCC2)cc1`, the AC50 was 3.52 µM.
With `CCCCCCCCCCOC(=O)Cn1c(COc2cccc(C)c2)[n+](C)c2ccccc21` the figure was 4.71 µM; with `CCOC(=O)N1CCN(Cc2cc(Cl)c3cccnc3c2O)CC1`, 13.2 µM; with `CC1CCC(C(C)C)C(OC(=O)Cn2c(-c3ccc(Cl)cc3)[n+](C)c3ccccc32)C1` (stereo not given), 3.83 µM.
Turning to `COc1cc(NC(=O)c2ccc([N+](=O)[O-])o2)ccc1NC(=O)c1cccs1`, the AC50 was 15.2 µM.
In the case of `CC(C)Cn1c(SCC(=O)N2CCc3ccccc3C2)nc2cc(Cl)ccc2c1=O` it was 6.5 µM; in that of `COc1cccc(CN2CCC(N(CCc3ccccc3)Cc3ccccc3)CC2)c1OC`, 14.7 µM.
In the case of `CCOc1ccc(-n2c(O)c(/C=N/Nc3nc(C)cc(C)n3)c3ccccc3c2=O)cc1` it was 6.38 µM; in that of `O=C(NCc1cccnc1)/C(=C\c1ccc(-c2ccc(Br)cc2)o1)S(=O)(=O)c1ccccc1`, 4.27 µM; in that of `O=C1C(Cl)=C(NCCN2CCCCC2)C(=O)c2ccccc21`, 14.1 µM.
With `C/C(=N\NC(=O)COc1ccccc1-c1ccccc1)c1ccccn1` the figure was 6.13 µM; with `C#CCOCCOCCOCCNc1nc(N2CCN(C(=O)CCCCCCCCCCNC(=O)[C@H]([C@@H](C)CC)n3cc(CCCCN=C(N)N)nn3)CC2)nc(N2CCN(C(=O)CCCCCCCCCCNC(=O)[C@H](CCCCN)n3cc(C)nn3)CC2)n1`, 6.28 µM; with `CCN(CC)c1ccc(/C=N/NC(=O)CNC(=O)C2COc3ccccc3O2)c(O)c1` (stereo not given), 5.41 µM.
In the case of `Cc1cccc(/C=N/NC(=O)c2ccc3c(c2)OCCO3)c1O`, the AC50 was 7.38 µM.
In the case of `COC(=O)c1ccc(NC(=O)c2nc(S(=O)(=O)Cc3cccc(C)c3)ncc2Cl)cc1` it was 10.8 µM; in that of `CCCCCCSc1cc(-c2nc3ccc(C)cn3c2NCCCC)ccc1OC`, 6.79 µM.
In the case of `O=C(Nc1cccc(Cl)c1)Nc1nnc(-c2ccncc2)s1` it was 6.36 µM.
In the case of `O=C(NCc1cccnc1)Nc1ccc([N+](=O)[O-])cc1` it was 11.8 µM.
For the compound `O=C(NCCOCCOCCNC(=O)c1cccnc1)c1cccnc1`, the AC50 is 3.83 µM.
In the case of `COc1ccc(C(=O)N/N=C/c2ccccc2OC(=O)c2ccccc2)cc1` it was 7.93 µM.
With `Cc1cc(N2CCN(S(=O)(=O)c3ccc(Cl)cc3)CC2)c2ccccc2n1` the figure was 7.4 µM; with `CCCCCCc1cc2cc(-c3nnc(-c4ccccc4O)o3)c(=O)oc2cc1O`, 7.66 µM.
With `O=C(NNc1ccccc1Br)C(O)(c1cccc(C(F)(F)F)c1)c1cccc(C(F)(F)F)c1` the figure was 7.06 µM; with `O=c1cnnc(N/N=C/c2ccccn2)[nH]1`, 3.93 µM.
As to `COc1ccc(O)c(/C=N/NC(=S)Nc2cccnc2)c1`, the AC50 was 15.6 µM.
In the case of `COc1ccc(C(=O)C/C(=C\C(=O)c2ccc(C)cc2)c2ccccc2)cc1` it was 7.67 µM; in that of `CCC(=O)NC(c1ccc(C)cc1)c1cc([N+](=O)[O-])c2cccnc2c1O` (stereo not given), 13.8 µM; in that of `O=C(CCCc1nc(-c2ccc(Cl)cc2)no1)NC1CCCC1`, 13.5 µM.
In the case of `CCCNC(=O)c1ccc2c(=O)c(O)c(-c3ccc(C)cc3)[nH]c2c1` it was 8.71 µM; in that of `CNC[C@@H](Cc1ccccc1)NC[C@@H](CC1CCCCC1)NCCCc1ccccc1`, 7.41 µM.
With `O=C(CN(Cc1ccco1)Cc1ccco1)Nc1cc(S(=O)(=O)N2CCCCC2)ccc1Cl` the figure was 7.47 µM.
In the case of `CCN(CC)CCn1c2ccccc2c2cnc(N)c(C#N)c21`, the half-maximal activity concentration (AC50) is 14.3 µM.
With `OCCCNc1c2ccccc2nc2ccccc12` the figure was 9.09 µM; with `Cc1[nH]nc2nc(SCC(=O)NCCC3=CCCCC3)n(-c3ccc(Br)cc3)c(=N)c12`, 6.36 µM; with `CCCCNc1c(-c2ccc(-c3cccc(Cl)c3)cc2)nc2ccccn12`, 5.83 µM.
With `CCN(CC)S(=O)(=O)c1ccc(Oc2ccc(S(=O)(=O)N(CC)CC)cc2)cc1` the figure was 2.88 µM; with `COC(=O)c1c(C)oc2ccc(N(C(=O)c3ccncc3)S(=O)(=O)c3ccc(C)cc3C)cc12`, 5.76 µM.
In the case of `CC(C)[C@H]1C(=O)O[C@H](C(C)C)C(=O)N(C)[C@@H](C(C)C)C(=O)O[C@H](C(C)C)C(=O)N(C)[C@@H](C(C)C)C(=O)O[C@H](C(C)C)C(=O)N1C` it was 3.8 µM; in that of `COc1ccc(/C=N/NC(=O)c2nc(-c3ccccc3)n(-c3ccccc3)n2)c(O)c1`, 4.37 µM.
On to `Cc1cc(/C=C2/SC(=S)N(c3ccc([N+](=O)[O-])cc3)C2=O)c(C)n1-c1cccnc1`, for which the AC50 is 0.912 µM.
In the case of `NNc1ncnc2scc(-c3ccc(Cl)cc3)c12` it was 14.5 µM; in that of `O=S1(=O)C=C(Sc2nc3ccccc3s2)c2ccccc21`, 5.35 µM.
With `CCN(CC)c1ccc(/C=N/NC(=O)c2cnccn2)c(O)c1` the figure was 2.01 µM.
With `O=C(Nc1nc(-c2ccccn2)cs1)c1ccc(Br)s1` the figure was 6.75 µM.
Consider `c1ccc(-c2nc(NCc3ccco3)c3ccccc3n2)nc1`, for which the AC50 is 8.46 µM.
In the case of `COc1ccccc1-[n+]1c(C)cc(/C=C2\Sc3ccccc3N2C)cc1C` it was less than 0.195 µM; in that of `O=C(COc1ccccc1-c1ccccc1)N/N=C/c1ccc2ccccc2c1`, 8.67 µM; in that of `COc1ccc(-c2nc(NC(=O)c3cc(C(C)(C)C)nn3C)sc2C)cc1`, 17.6 µM.
As to `Cc1cccnc1CN1CCN(C(=O)c2cc(COc3ccc4ncccc4c3)on2)CC1`, the concentration at half-maximal activity (AC50) was 5.44 µM.
With `CN(C)S(=O)(=O)c1cccc(N=C2NN=C(c3ccccc3)CS2)c1` the figure was 4.4 µM; with `O=C(N/N=C/c1cc([N+](=O)[O-])ccc1O)c1cccc2ccccc12`, 9.87 µM.
For `COc1ccc(S(=O)(=O)Nc2cc(SCC(=O)O)c(O)c3ccccc23)cc1`, the AC50 was 8.19 µM.
With `Cc1ncc(CO)c(/C=N/NC(=O)c2cc3c(s2)CCCC3)c1O` the figure was 5.92 µM; with `Cc1cc(C)n(-c2nc(Nc3ccccc3C(F)(F)F)nc(-n3nc(C)cc3C)n2)n1`, 6.87 µM.
In the case of `CCN1c2ccccc2NC2N=C(OC)C(c3ccccc3)C21` (stereo not given) it was 13.1 µM.
In the case of `Cc1nc2ccccc2nc1N/N=C/c1ccc(O)cc1O` it was 3.6 µM.
On to `CN1CCN(c2ccc([N+](=O)[O-])c3no[n+]([O-])c23)CC1`, for which the concentration at half-maximal activity (AC50) is 1.9 µM.
With `CCOC(=O)C1CCN(Cc2ccc(O)c3ncccc23)CC1` the figure was 12.5 µM.
In the case of `c1ccc(CNc2c(-c3cccc(SC4CCCCC4)c3)nc3ccccn23)cc1` it was 2.98 µM.
In the case of `O=C(Cc1cccs1)N/N=C\c1ccc([N+](=O)[O-])s1` it was 7.04 µM; in that of `CCc1ccc(-c2cc(C(F)(F)F)n3nc(C(=O)Nc4cnn(Cc5ccc(C)cc5)c4)cc3n2)s1`, 7.83 µM.
As to `CCn1c(/C=C/c2ccc([N+](=O)[O-])o2)nc2ccccc2c1=O`, the AC50 is 4.08 µM.

What is called AC50 is the concentration giving half of the maximal activity seen.
